Laboratory results from ChEMBL document CHEMBL3045481, “Insecticide-induced resurgence of the whitebacked planthopper Sogatella furcifera (Horvath) (Hemiptera: Delphacidae) on rice varieties with different levels of resistance” (Crop Prot, 2011).

Columns and labels:
Oryza sativa [1] = assay: Effect on reducing sugar level in Sogatella furcifera-sensitive Oryza sativa (rice) plant ARC6248 leaf blade measured per gram of dry weight at 0.025% concentration (reference value: 8.37 mg/g dry wt); format: ADME, organism-based; settings: in vivo
Sogatella furcifera [2] = assay: Insecticidal activity against Sogatella furcifera on insect-resistanct rice plant PR116 assessed as nymphal survival at 0.025% concentration (reference value: 70.28%); format: functional
Sogatella furcifera [3] = assay: Insecticidal activity against Sogatella furcifera on insect-resistanct rice plant PR116 assessed as growth index at 0.025% concentration (reference value: 6.02%); format: functional
Oryza sativa [4] = assay: Effect on total phenols level in Sogatella furcifera-sensitive Oryza sativa (rice) plant ARC6248 leaf blade measured per gram of dry weight at 0.025% concentration (reference value: 17.08 mg/g dry wt); format: ADME, organism-based; settings: in vivo
Sogatella furcifera [5] = assay: Insecticidal activity against Sogatella furcifera on insect-sensitive rice plant ARC6248 assessed as nymphal duration at 0.025% concentration (reference value: 14.48 days); format: functional
Sogatella furcifera [6] = assay: Insecticidal activity against Sogatella furcifera on insect-sensitive rice plant ARC6248 assessed as nymphal survival at 0.025% concentration (reference value: 34.17%); format: functional
Oryza sativa [7] = assay: Effect on total protein level in Sogatella furcifera-resistanct Oryza sativa (rice) plant PR116 leaf sheath measured per gram of dry weight at 0.025% concentration (reference value: 7.06 mg/g fresh wt); format: ADME, organism-based; settings: in vivo
Oryza sativa [8] = assay: Effect on total protein level in Sogatella furcifera-sensitive Oryza sativa (rice) plant ARC6248 leaf sheath measured per gram of dry weight at 0.025% concentration (reference value: 6.11 mg/g […]); format: ADME, organism-based; settings: in vivo
Oryza sativa [9] = assay: Effect on total phenols level in Sogatella furcifera-sensitive Oryza sativa (rice) plant ARC6248 leaf sheath measured per gram of dry weight at 0.025% concentration (reference value: 12.75 mg/g dry wt); format: ADME, organism-based; settings: in vivo
Oryza sativa [10] = assay: Effect on total protein level in Sogatella furcifera-sensitive Oryza sativa (rice) plant ARC6248 leaf blade measured per gram of dry weight at 0.025% concentration (reference value: 17.67 mg/g […]); format: ADME, organism-based; settings: in vivo
Oryza sativa [11] = assay: Effect on total phenols level in Sogatella furcifera-resistanct Oryza sativa (rice) plant PR116 leaf blade measured per gram of dry weight at 0.025% concentration (reference value: 8.08 mg/g dry wt); format: ADME, organism-based; settings: in vivo
Oryza sativa [12] = assay: Effect on reducing sugar level in Sogatella furcifera-sensitive Oryza sativa (rice) plant ARC6248 leaf sheath measured per gram of dry weight at 0.025% concentration (reference value: 6.41 mg/g dry wt); format: ADME, organism-based; settings: in vivo
Sogatella furcifera [13] = assay: Insecticidal activity against Sogatella furcifera on insect-sensitive rice plant ARC6248 assessed as growth index at 0.025% concentration (reference value: 2.38%); format: functional
Oryza sativa [14] = assay: Effect on total phenols level in Sogatella furcifera-resistanct Oryza sativa (rice) plant PR116 leaf sheath measured per gram of dry weight at 0.025% concentration (reference value: 5.75 mg/g dry wt); format: ADME, organism-based; settings: in vivo
Oryza sativa [15] = assay: Effect on total amino acids level in Sogatella furcifera-sensitive Oryza sativa (rice) plant ARC6248 leaf blade measured per gram of dry weight at 0.025% concentration (reference value: 3.54 mg/g […]); format: ADME, organism-based; settings: in vivo
Oryza sativa [16] = assay: Effect on total sugar level in Sogatella furcifera-sensitive Oryza sativa (rice) plant ARC6248 leaf sheath measured per gram of dry weight at 0.025% concentration (reference value: 25.98 mg/g dry wt); format: ADME, organism-based; settings: in vivo
Oryza sativa [17] = assay: Effect on total protein level in Sogatella furcifera-resistanct Oryza sativa (rice) plant PR116 leaf blade measured per gram of dry weight at 0.025% concentration (reference value: 21.67 mg/g fresh wt); format: ADME, organism-based; settings: in vivo
Sogatella furcifera [18] = assay: Insecticidal activity against Sogatella furcifera on insect-sensitive rice plant ARC6248 assessed as resurgence ratio at 0.025% concentration; format: functional
Oryza sativa [19] = assay: Effect on total sugar level in Sogatella furcifera-sensitive Oryza sativa (rice) plant ARC6248 leaf blade measured per gram of dry weight at 0.025% concentration (reference value: 34.05 mg/g dry wt); format: ADME, organism-based; settings: in vivo
Oryza sativa [20] = assay: Effect on total sugar level in Sogatella furcifera-resistanct Oryza sativa (rice) plant PR116 leaf blade measured per gram of dry weight at 0.025% concentration (reference value: 36.16 mg/g dry wt); format: ADME, organism-based; settings: in vivo
Oryza sativa [21] = assay: Effect on total amino acids level in Sogatella furcifera-resistanct Oryza sativa (rice) plant PR116 leaf blade measured per gram of dry weight at 0.025% concentration (reference value: 3.91 mg/g […]); format: ADME, organism-based; settings: in vivo
Oryza sativa [22] = assay: Effect on total sugar level in Sogatella furcifera-resistanct Oryza sativa (rice) plant PR116 leaf sheath measured per gram of dry weight at 0.025% concentration (reference value: 30.27 mg/g dry wt); format: ADME, organism-based; settings: in vivo
Oryza sativa [23] = assay: Effect on total amino acids level in Sogatella furcifera-sensitive Oryza sativa (rice) plant ARC6248 leaf sheath measured per gram of dry weight at 0.025% concentration (reference value: 2.11 mg/g fresh wt); format: ADME, organism-based; settings: in vivo
Sogatella furcifera [24] = assay: Insecticidal activity against Sogatella furcifera on insect-resistanct rice plant PR116 assessed as resurgence ratio at 0.025% concentration; format: functional
Oryza sativa [25] = assay: Effect on reducing sugar level in Sogatella furcifera-resistanct Oryza sativa (rice) plant PR116 leaf blade measured per gram of dry weight at 0.025% concentration (reference value: 9.35 mg/g dry wt); format: ADME, organism-based; settings: in vivo
Sogatella furcifera [26] = assay: Insecticidal activity against Sogatella furcifera on insect-resistanct rice plant PR116 assessed as nymphal duration at 0.025% concentration (reference value: 11.75 days); format: functional
Oryza sativa [27] = assay: Effect on reducing sugar level in Sogatella furcifera-resistanct Oryza sativa (rice) plant PR116 leaf sheath measured per gram of dry weight at 0.025% concentration (reference value: 7.50 mg/g dry wt); format: ADME, organism-based; settings: in vivo
Oryza sativa [28] = assay: Effect on total amino acids level in Sogatella furcifera-resistanct Oryza sativa (rice) plant PR116 leaf sheath measured per gram of dry weight at 0.025% concentration (reference value: 2.58 mg/g […]); format: ADME, organism-based; settings: in vivo

Structure (SMILES): CC1(C)[C@H](C(=O)O[C@H](C#N)c2cccc(Oc3ccccc3)c2)[C@@H]1C=C(Br)Br [DELTAMETHRIN]
- Activity (Oryza sativa [1]): 12.28 mg
- Survival (Sogatella furcifera [2]): 78.05%
- growth inhibition (GI) (Sogatella furcifera [3]): 6.77%
- Activity (Oryza sativa [4]): 17.08 mg
- Time (Sogatella furcifera [5]): 14.32 days
- Survival (Sogatella furcifera [6]): 38.89%
- Activity (Oryza sativa [7]): 8 mg
- Activity (Oryza sativa [8]): 7.78 mg
- Activity (Oryza sativa [9]): 12 mg
- Activity (Oryza sativa [10]): 19.83 mg
- Activity (Oryza sativa [11]): 6.92 mg
- Activity (Oryza sativa [12]): 10.76 mg
- growth inhibition (GI) (Sogatella furcifera [13]): 2.74%
- Activity (Oryza sativa [14]): 5.42 mg
- Activity (Oryza sativa [15]): 4.21 mg
- Activity (Oryza sativa [16]): 35.36 mg
- Activity (Oryza sativa [17]): 23.89 mg
- Ratio (Sogatella furcifera [18]): 1.28
- Activity (Oryza sativa [19]): 38.84 mg
- Activity (Oryza sativa [20]): 44.2 mg
- Activity (Oryza sativa [21]): 4.62 mg
- Activity (Oryza sativa [22]): 35.62 mg
- Activity (Oryza sativa [23]): 2.95 mg
- Ratio (Sogatella furcifera [24]): 1.75
- Activity (Oryza sativa [25]): 14.35 mg
- Time (Sogatella furcifera [26]): 11.63 days
- Activity (Oryza sativa [27]): 13.8 mg
- Activity (Oryza sativa [28]): 3.73 mg
